According to patent US6784201B2, “Benzothiepines having activity as inhibitors of ileal bile acid transport and taurocholate uptake” (G.D. Searle & Company, priority 1994, dated 2004):

biological target: T1, human IBAT (Homo sapiens, UniProt Q12908); test: In vitro assay of IBAT-mediated uptake of [14C]-taurocholate (TC) in H14 cells; type: cell-based; details: 50 μM
T1 construct: expressed in transfected cells; host or cells: Baby hamster kidney (BHK) cells, clone H14
T1 sequence (Q12908 1-348): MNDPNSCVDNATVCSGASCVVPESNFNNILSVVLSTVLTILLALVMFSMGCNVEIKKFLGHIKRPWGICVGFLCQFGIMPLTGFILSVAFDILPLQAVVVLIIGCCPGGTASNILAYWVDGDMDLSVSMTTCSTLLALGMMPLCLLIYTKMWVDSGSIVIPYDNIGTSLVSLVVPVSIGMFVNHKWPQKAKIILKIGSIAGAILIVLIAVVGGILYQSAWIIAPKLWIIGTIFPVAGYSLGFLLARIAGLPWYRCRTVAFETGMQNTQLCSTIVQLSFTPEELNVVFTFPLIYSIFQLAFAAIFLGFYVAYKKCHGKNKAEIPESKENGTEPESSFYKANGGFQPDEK
Method in brief: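 BHK cells stably expressing human IBAT (H14) were incubated 2 h at 37° C with compound and 3 μM final [14C]-taurocholate in DMEM (4.5 g/L glucose) plus 0.2% fatty acid-free BSA. After cold PBS washes, cell-associated radioactivity was measured by scintillation counting.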

Row | Compound | inhibition at 50 µM
1 | O=S1(=O)CC2(CCCCC2)C2OC2(c2ccccc2)c2ccccc21 (centres unmarked) [Example 58, 8b-Phenyl-1a,2,3,8b-tetrahydrospiro(benzothiepino[4,5-b]oxirene-2,1′-cyclohexane)-4,4-dioxide] | 20%

same assay, conditions: H14 cells, Table 5; read-out: IC50 uM (In vitro Taurocholate Cell Uptake)

Row | Compound | IC50
2 | CCCC[C@]1(CC)CS(=O)(=O)c2ccccc2[C@@H](c2ccccc2)[C@@H]1O [Example 6a, (3α,4α,5β) 3-Butyl-3-ethyl-4-hydroxy-5-phenyl-2,3,4,5-tetrahydrobenzothiepine-1,1-dioxide] | 5 µM

same assay, conditions: Human TC IC50

Row | Compound | IC50
3 | CCCCC1(CC)CS(=O)(=O)c2ccc(N(C)C)cc2C(c2ccccc2)C1O (centres unmarked) [Example 1159] | 0.06 µM
4 | CCCCC1(CC)CS(=O)(=O)c2ccc(N(C)C)cc2C(c2ccccc2)C1O (centres unmarked) [Example 1285] | 0.027 µM

same assay, conditions: read-out: Human TC IC50

Row | Compound | IC50
5 | CCCCC1(CCCC)CS(=O)(=O)c2ccc(N(C)C)cc2C(c2ccc(OCCOCCOCC[N+](CC)(CC)CC)cc2)C1O (centres unmarked) [Example 1048] | 0.003 µM
6 | CCCCC1(CCCC)CS(=O)(=O)c2ccc(N(C)C)cc2C(c2ccc(F)cc2)C1O (centres unmarked) [Example 1115] | 0.0098 µM
7 | CCCCC1(CC)CS(=O)(=O)c2ccc(N(C)C)cc2C(c2ccc(OC)c(F)c2)C1O (single isomer, unassigned) [Example 1151] | 0.031 µM
8 | CCCCC1(CCCC)CS(=O)(=O)c2ccc(N(C)C)cc2C(c2ccc(OCCOCCOCCOc3ccc(C4c5cc(N(C)C)ccc5S(=O)(=O)CC(CCCC)(CCCC)C4O)cc3F)c(F)c2)C1O (centres unmarked) [Example 1194] | 1.6 µM
9 | CCCCC1(CCCC)CS(=O)(=O)c2ccc(N(C)C)cc2C(c2cccc(OCCOCCOCC[n+]3ccc(CC)cc3)c2)C1O (centres unmarked) [Example 1084] | 0.005 µM
10 | CCCCC1(CCCC)CS(=O)(=O)c2ccc(N(C)C)cc2C(c2ccc(OCCOCCOCCOc3ccc(C4c5cc(N(C)C)ccc5S(=O)(=O)CC(CCCC)(CCCC)C4O)cc3)cc2)C1O (centres unmarked) [Example 1199] | 4 µM
11 | CCCCN(C)c1ccc2c(c1)C(c1ccc(F)cc1)C(O)C(CCCC)(CCCC)CS2(=O)=O (centres unmarked) [Example 1181] | 0.22 µM
12 | CCCCC1(CCCC)CS(=O)(=O)c2ccc(N(C)C)cc2C(c2cccc(OCCOCCOCC[n+]3cccn3-c3ccccc3)c2)C1O (centres unmarked) [Example 1361] | 0.004 µM
13 | CCCCC1(CCCC)CS(=O)(=O)c2ccc(N(C)C)cc2C(c2cccc([N+](C)(C)C)c2)C1O (centres unmarked) [Example 1245] | 0.32 µM
14 | CCCCC1(CCCC)CS(=O)(=O)c2ccc(N(C)C)cc2C(c2ccc(OCCOCCOCC[N+]3(C)CC[N+](C)(C)CC3)c(F)c2)C1O (centres unmarked) [Example 1354] | 0.006 µM
15 | CCCCC1(CCCC)CS(=O)(=O)c2c(cc(N(C)C)cc2N(C)C)C(c2ccc(F)cc2)C1O (centres unmarked) [Example 1075] | 0.0043 µM
16 | CCCCC1(CC)CS(=O)(=O)c2ccc(N(C)C)cc2C(c2cccc(C)c2)C1O (single isomer, unassigned) [Example 1116] | 0.0093 µM
17 | CCCCC1(CCCC)CS(=O)(=O)c2ccc(N(C)C)cc2C(c2cccc(OCCOCCOCC[n+]3ccc(C(C)C)cc3)c2)C1O (centres unmarked) [Example 1026] | 0.002 µM
18 | CCCCC1(CCCC)CS(=O)(=O)c2ccc(N(C)C)cc2C(c2ccc(O)cc2)C1O (centres unmarked) [Example 1037] | 0.0022 µM
19 | CCCCC1(CCCC)CS(=O)(=O)c2ccc(N(C)C)cc2C(c2cccc(OCCOCCOCC[N+]3(c4ccccc4)CCCCC3)c2)C1O (centres unmarked) [Example 1294] | 0.011 µM
20 | CCCCC1(CCCC)CS(=O)(=O)c2ccc(N(C)C)cc2C(c2ccc(F)c(Cl)c2)C1O (centres unmarked) [Example 1130] | 0.018 µM
21 | CCCCC1(CCCC)CS(=O)(=O)c2ccc(N(C)C)cc2C(c2ccc(CC#N)cc2)C1O (centres unmarked) [Example 1133] | 0.02 µM
22 | CCCC[C@]1(CC)CS(=O)(=O)c2cc(OCCOCCOCC[N+](C)(C)C)ccc2[C@@H](c2ccccc2)[C@H]1O [Example 125] | 18 µM
23 | CCCCC1(CC)CS(=O)(=O)c2ccc(N(C)C)cc2C(c2ccc(O)cc2)C1O (single isomer, unassigned) [Example 1287] | 0.071 µM
24 | CCCCC1(CCCC)CS(=O)(=O)c2ccc(F)cc2C(c2cccc(OC)c2)C1O (centres unmarked) [Example 1183] | 0.28 µM
25 | CCCCC1(CCCC)CS(=O)(=O)c2ccc(N(C)C)cc2C(c2ccc(OCCCCCCCCCC[N+](CC)(CC)CC)cc2)C1O (centres unmarked) [Example 1268] | 0.035 µM
26 | CCCCC1(CCCC)CS(=O)(=O)c2cc(Br)c(NC)cc2C(c2ccccc2)C1O (centres unmarked) [Example 1223] | 0.28 µM
27 | CCCCC1(CC)CS(=O)(=O)c2ccc(N(C)C)cc2C(c2ccc(OC)c(F)c2)C1O (single isomer, unassigned) [Example 1213] | 1.7 µM
28 | CCCCC1(CC)CS(=O)(=O)c2ccc(O)cc2C(c2ccc(F)cc2)C1O (centres unmarked) [Example 270] | 0.12 µM
29 | CCCCC1(CCCC)CS(=O)(=O)c2ccc(N(C)C)cc2C(c2cccc(OCCOCCOCC[n+]3ccc(C(C)(C)C)cc3)c2)C1O (centres unmarked) [Example 1138] | 0.022 µM
30 | CCCCC1(CCCC)CS(=O)(=O)c2ccc([N+](C)(C)C)cc2C(c2ccccc2)C1O (centres unmarked) [Example 1180] | 0.2 µM
31 | CCCCCC[N+](CCCCCC)(CCCCCC)CCOCCOCCOc1cccc(C2c3cc(N(C)C)ccc3S(=O)(=O)CC(CCCC)(CCCC)C2O)c1 (centres unmarked) [Example 1279] | 0.028 µM

Row | Compound | IC50
32 | CCCCC1(CCCC)CS(=O)(=O)c2ccc(N(C)C)cc2C(c2ccc(OCc3cccc(CCl)n3)c(F)c2)C1O (centres unmarked) [Example 1274] | 0.028 µM
33 | CCCCC1(CCCC)CS(=O)(=O)c2ccc(N(C)C)cc2C(c2cccc(OCCOCCOCC[n+]3ccccn3)c2)C1O (centres unmarked) [Example 1008] | 0.001 µM
34 | CCCCC1(CCCC)CS(=O)(=O)c2c(OC)cc(N(C)C)cc2C(c2ccc(OC)cc2)C1O (centres unmarked) [Example 1014] | 0.002 µM
35 | CCCCC1(CCCC)CS(=O)(=O)c2ccc(N(C)C)cc2C(c2cccc(OCCOCCOCC[n+]3cc4ccccc4c4ccccc43)c2)C1O (centres unmarked) [Example 1066] | 0.004 µM
36 | CCCCC1(CCCC)CS(=O)(=O)c2ccc(N(C)C)cc2C(c2cccc(O)c2)C1O (centres unmarked) [Example 1106] | 0.0073 µM
37 | CCCCC1(CCCC)CS(=O)(=O)c2ccc(N(C)C)cc2C(c2cc(Cl)cc(Cl)c2)C1O (centres unmarked) [Example 1207] | 0.068 µM
38 | CCCCC1(CCCC)CS(=O)(=O)c2ccc(N(C)C)cc2C(c2cccc(OCCOCCOCC[N+](C)(C)c3ccccc3)c2)C1O (centres unmarked) [Example 1092] | 0.006 µM
39 | CCCCC1(CC)CS(=O)(=O)c2ccc(C)cc2C(c2ccc(F)cc2)C1O (single isomer, unassigned) [Example 282] | 0.021 µM
40 | CCCCC1(CC)CS(=O)(=O)c2ccc(N(C)C)cc2C(c2cccc(C)c2)C1O (single isomer, unassigned) [Example 1225] | 0.12 µM
41 | CCCCC1(CCCC)CS(=O)(=O)c2ccc(N(C)C)cc2C(c2ccc(OCCCC[n+]3ccc(C(=O)OC)cc3)c(F)c2)C1O (centres unmarked) [Example 1366] | 0.015 µM
42 | CCCCC1(CCCC)CS(=O)(=O)c2ccc(N(C)C)cc2C(c2ccc(OC)c(F)c2)C1O (centres unmarked) [Example 1347] | 0.0036 µM
43 | CCCCC1(CCCC)CS(=O)(=O)c2cc(Br)c(N(C)C)cc2C(c2ccccc2)C1O (centres unmarked) [Example 1257] | 0.1 µM
44 | CCCCC1(CCCC)CS(=O)(=O)c2ccc(N(C)C)cc2C(c2ccc3cc(OC)ccc3c2)C1O (centres unmarked) [Example 1231] | 0.075 µM
45 | CCCCC1(CCCC)CS(=O)(=O)c2ccc(N(C)C)cc2C(c2cccc(OCCOCCOCC[N+](CC)(CC)CCNP(C)(=O)c3ccccc3)c2)C1O (centres unmarked) [Example 1373] | 0.008 µM
46 | CCCCC1(CCCC)CS(=O)(=O)c2ccc(N(C)C)cc2C(c2ccc(OS(=O)(=O)C(F)(F)F)cc2)C1O (centres unmarked) [Example 1171] | 0.14 µM
47 | CCCCC1(CCCC)CS(=O)(=O)c2ccc(N(C)C)cc2C(c2ccc(OCCOCCOc3cccc(N(CC)CC)c3)c(F)c2)C1O (centres unmarked) [Example 1296] | 0.063 µM
48 | CCCCC1(CCCC)CS(=O)(=O)c2ccc(NCC)cc2C(c2cccc(OC)c2)C1O (centres unmarked) [Example 1222] | 0.065 µM
49 | CCCCC1(CCCC)CS(=O)(=O)c2ccc(N(C)C)cc2C(c2ccc(OCCOCC[n+]3ccc(N(C)C)cc3)c(F)c2)C1O (centres unmarked) [Example 1101] | 0.007 µM
50 | CCCCC1(CCCC)CS(=O)(=O)c2ccc(N(C)C)cc2C(c2ccc(C(=O)O)cc2)C1O (centres unmarked) [Example 1217] | 0.32 µM
51 | CCCCCCNc1ccc2c(c1)C(c1ccccc1)C(O)C(CC)(CCCC)CS2(=O)=O (centres unmarked) [Example 123] | 1.67 µM
52 | CCCCC1(CCCC)CS(=O)(=O)c2ccc(N(C)C)cc2C(c2cccc(OCCOCCOCC[N+](CC)(CC)CC(C)=O)c2)C1O (centres unmarked) [Example 1081] | 0.005 µM
53 | CCCCC1(CCCC)CS(=O)(=O)c2ccc(N(C)C)cc2C(c2ccc(OCCOCCN(C)CC(=O)O)c(F)c2)C1O (centres unmarked) [Example 1277] | 0.018 µM
54 | CCCCC1(CCCC)CS(=O)(=O)c2ccc(N(C)C)cc2C(c2cccc([N+](=O)[O-])c2)C1O (centres unmarked) [Example 1256] | 0.011 µM
55 | CCCCC1(CCCC)CS(=O)(=O)c2ccc(N(C)C)cc2C(c2cccc(OCCOCCOCC[n+]3ccc(C)c4ccccc43)c2)C1O (centres unmarked) [Example 1017] | 0.002 µM
56 | CCCCC1(CC)CS(=O)(=O)c2ccc(Br)cc2C(c2cccc(OC)c2)C1O (single isomer, unassigned) [Example 272] | 0.7 µM
57 | CCCCC1(CCCC)CS(=O)(=O)c2ccc(NC)cc2C(c2cccc(OCCOCCOCC[n+]3cc4ccccc4cn3)c2)C1O (centres unmarked) [Example 1061] | 0.004 µM
58 | CCCCC1(CCCC)CS(=O)(=O)c2ccc(N(C)C)cc2C(c2cccc(OC)c2)C1O (centres unmarked) [Example 1124] | 0.011 µM

same assay, conditions: read-out: In vitro % Inhibition of TC Uptake @ 100 uM

Row | Compound | inhibition at 100 µM
59 | CCC1C=C(c2ccccc2)c2ccccc2SC1 (centres unmarked) [Example 12, 3-Ethyl-5-phenyl-2,3-dihydrobenzothiepine] | 25%
